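1) Cells in 96-well plates. 2) Compound, 48 h, 5 concentrations. 3) Linear interpolation between surrounding doses. 4) Unreached endpoint = highest concentration. At the GI50, growth is halved.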 Calls of active or inactive are those of the source. No stated cut-off is given here; in the data, active = GI50 up to about 1.1 µM and inactive = higher.
Experiments:
Experiment in all cases: NCI anticancer screen, dose series, 48 h
HCC 2998 = test system: HCC 2998
786-0 = test system: 786-0
MDA-MB-231 = test system: MDA-MB-231
CCRF-CEM = test system: CCRF-CEM
ACHN = test system: ACHN
SW-620 = test system: SW-620
K562 = test system: K562
OVCAR-3 = test system: OVCAR-3
MDA-N = test system: MDA-N
UACC-257 = test system: UACC-257
OVCAR-5 = test system: OVCAR-5
M14 = test system: M14
NCI-H226 = test system: NCI-H226
A549 = test system: A549
OVCAR-8 = test system: OVCAR-8
A498 = test system: A498
IGROV-1 = test system: IGROV-1
HL-60 = test system: HL-60
SF-295 = test system: SF-295
UO-31 = test system: UO-31

Structure (SMILES)	GI50 (HCC 2998)	GI50 (786-0)	GI50 (MDA-MB-231)	GI50 (CCRF-CEM)	GI50 (ACHN)	GI50 (SW-620)	GI50 (K562)	GI50 (OVCAR-3)	GI50 (MDA-N)	GI50 (UACC-257)	GI50 (OVCAR-5)	GI50 (M14)	GI50 (NCI-H226)	GI50 (A549)	GI50 (OVCAR-8)	GI50 (A498)	GI50 (IGROV-1)	GI50 (HL-60)	GI50 (SF-295)	GI50 (UO-31)
OCC(Cn1cncn1)(c1ccc(F)cc1F)n1cncn1 (stereo unspecified)	> 100 µM (inactive)	66.1 µM (inactive)	> 100 µM (inactive)	> 100 µM (inactive)	> 100 µM (inactive)	> 100 µM (inactive)	> 100 µM (inactive)	> 100 µM (inactive)	> 100 µM (inactive)	> 100 µM (inactive)	> 100 µM (inactive)	> 100 µM (inactive)	> 100 µM (inactive)	> 100 µM (inactive)	> 100 µM (inactive)	38.5 µM (inactive)	> 100 µM (inactive)	> 100 µM (inactive)	> 100 µM (inactive)	> 100 µM (inactive)
C=C1C(=O)OC2CC(=C)C3CC=C(C)C3CC12 (stereo unspecified)	21.1 µM (inactive)	15.7 µM (inactive)	21.5 µM (inactive)	8.24 µM (inactive)	18.7 µM (inactive)	15.7 µM (inactive)	11 µM (inactive)	27.5 µM (inactive)	16.4 µM (inactive)	14.4 µM (inactive)	46.7 µM (inactive)	18 µM (inactive)	15.6 µM (inactive)	35.5 µM (inactive)	35.9 µM (inactive)	53.6 µM (inactive)	18 µM (inactive)	18.3 µM (inactive)	32.4 µM (inactive)	15.9 µM (inactive)
Nc1ccc2c(=S)c3ccccc3[nH]c2c1	53.5 µM (inactive)	38.5 µM (inactive)	28.2 µM (inactive)	18.8 µM (inactive)	38.1 µM (inactive)	32.5 µM (inactive)	16.1 µM (inactive)	28.2 µM (inactive)	46.8 µM (inactive)	44.5 µM (inactive)	> 61.2 µM (inactive)	20.2 µM (inactive)	24.1 µM (inactive)	23.3 µM (inactive)	52.5 µM (inactive)	61.7 µM (inactive)	28 µM (inactive)	16.2 µM (inactive)	26.4 µM (inactive)	27.9 µM (inactive)
CC(Cl)(CCC(Cl)C(C)(C)Cl)C(=O)CBr (stereo unspecified)	17.1 µM (inactive)	7.94 µM (inactive)	11.1 µM (inactive)	0.877 µM (active)	8.04 µM (inactive)	2.18 µM (inactive)	2.88 µM (inactive)	15.4 µM (inactive)	8.2 µM (inactive)	12.4 µM (inactive)	17.5 µM (inactive)	9.79 µM (inactive)	16.8 µM (inactive)	19.5 µM (inactive)	10.5 µM (inactive)	17.2 µM (inactive)	13.3 µM (inactive)	2.24 µM (inactive)	21.4 µM (inactive)	9.31 µM (inactive)
COc1ccc2c(-c3cc4ccccc4o3)cc(=O)oc2c1	> 55.1 µM (inactive)	25.8 µM (inactive)	47.8 µM (inactive)	> 100 µM (inactive)	39.4 µM (inactive)	> 100 µM (inactive)	> 100 µM (inactive)	16.6 µM (inactive)	> 76.6 µM (inactive)	54.8 µM (inactive)	> 42.2 µM (inactive)	75.7 µM (inactive)	58.5 µM (inactive)	44 µM (inactive)	29.9 µM (inactive)	31.3 µM (inactive)	41.3 µM (inactive)	> 100 µM (inactive)	22.9 µM (inactive)	15 µM (inactive)
COC(=O)C1(Cc2ccc3c(c2)CCC3)Cc2ccc3c(c2C1=O)CCC3 (stereo unspecified)	6.95 µM (inactive)	7.33 µM (inactive)	5.78 µM (inactive)	5.21 µM (inactive)	18.6 µM (inactive)	4.11 µM (inactive)	3.37 µM (inactive)	4.26 µM (inactive)	2.01 µM (inactive)	8.65 µM (inactive)	21.1 µM (inactive)	4.26 µM (inactive)	10.5 µM (inactive)	9.48 µM (inactive)	15.2 µM (inactive)	5.61 µM (inactive)	5.46 µM (inactive)	2.86 µM (inactive)	3.72 µM (inactive)	10.6 µM (inactive)
c1cc2cc(Cc3ccc4[nH]ccc4c3)ccc2[nH]1	15.3 µM (inactive)	18.3 µM (inactive)	16.5 µM (inactive)	21.9 µM (inactive)	25.2 µM (inactive)	23.1 µM (inactive)	10 µM (inactive)	12.8 µM (inactive)	12.9 µM (inactive)	21.9 µM (inactive)	19.5 µM (inactive)	17.1 µM (inactive)	15.9 µM (inactive)	16.2 µM (inactive)	–	16.6 µM (inactive)	15.9 µM (inactive)	10.7 µM (inactive)	31 µM (inactive)	16.2 µM (inactive)
COC(=O)c1c2c(cc3c1CC1(C3)Cc3cc4c(c(C(=O)OC)c3C1)CCCC4)CCCC2	> 100 µM (inactive)	> 100 µM (inactive)	> 100 µM (inactive)	30.5 µM (inactive)	> 100 µM (inactive)	–	43 µM (inactive)	> 100 µM (inactive)	> 100 µM (inactive)	> 100 µM (inactive)	> 100 µM (inactive)	> 100 µM (inactive)	> 100 µM (inactive)	> 100 µM (inactive)	> 100 µM (inactive)	> 100 µM (inactive)	> 100 µM (inactive)	24.2 µM (inactive)	> 100 µM (inactive)	0.381 µM (active)
CCOC(=O)[C@@H]1ON2OC(OC3CCCC3(c3ccccc3)c3ccccc3)C(OC(C)=O)[C@H]3OC(=O)[C@@H]1C32 (stereo partly specified)	35.1 µM (inactive)	92.3 µM (inactive)	> 100 µM (inactive)	29.2 µM (inactive)	29.9 µM (inactive)	> 100 µM (inactive)	97.9 µM (inactive)	30.5 µM (inactive)	> 100 µM (inactive)	52.5 µM (inactive)	–	95.7 µM (inactive)	> 100 µM (inactive)	47.2 µM (inactive)	> 100 µM (inactive)	> 100 µM (inactive)	> 100 µM (inactive)	31.3 µM (inactive)	31.6 µM (inactive)	36.4 µM (inactive)
c1cc2c(cc1NC1=NCCO1)OCO2	> 100 µM (inactive)	> 100 µM (inactive)	> 100 µM (inactive)	12.9 µM (inactive)	> 100 µM (inactive)	> 100 µM (inactive)	11.9 µM (inactive)	> 100 µM (inactive)	42.2 µM (inactive)	–	> 100 µM (inactive)	> 100 µM (inactive)	> 100 µM (inactive)	> 100 µM (inactive)	> 100 µM (inactive)	> 100 µM (inactive)	> 100 µM (inactive)	41.2 µM (inactive)	> 100 µM (inactive)	> 100 µM (inactive)
